Measured values: ChEMBL document CHEMBL3430850, “MMV Malaria Box gametocyte standard membrane feeding assay screening”

assay: MMV: Gametocytes from P. falciparum reporter strain NF54-deltaPf47-5'hsp70-GFP::Luc were exposed to serial dilutions of compounds for 24 hours. Subsequently, compounds were washed out and gametocytes were fed to Anopheles stephensi mosquitoes. Three compounds were tested at six dilutions in one experimental run. All conditions were tested in duplicate in two different experimental runs. Each run included duplicate feeders for vehicle (0.1% DMSO) and positive (10 uM dihydroartemisinin) controls. Eight days post-feeding, oocyst densities were determined by assessment of luminescence signals in homogenized mosquitoes. Up to 24 mosquitoes were analysed per feeder. Luminescence data from individual mosquitoes were normalized against the average signals from the vehicle control feeds that were included in each run. IC50 values were determined by fitting a four-parameter logistic regression model using maximum likelihood optimization to find the best fit.; type: functional, Plasmodium falciparum; settings: not given; call rule not given here

| SMILES | IC50 |
| --- | --- |
| CC1CN(C(=O)c2sc3ccccc3c2Cl)CC(C)O1 (stereo not drawn) | Not active |
| OC(CNC1CCCCC1)Cn1c2ccc(I)cc2c2cc(I)ccc21 (stereo not drawn) | Not active |

same assay, conditions: read-out: IC50

| SMILES | IC50 |
| --- | --- |
| CCN(CC)CCn1c(=N)n(CC(O)c2ccc(Cl)c(Cl)c2)c2ccccc21 (stereo not drawn) | 1660 nM |
| CN(C)c1ccc(C(O)(c2ccc(N(C)C)cc2)c2ccc(N(C)C)cc2)cc1 [METHYLROSANILINE] | 38.9 nM |
| COc1ccc(C2c3ccc4ccccc4c3Oc3ncn(CCCN(C)C)c(=N)c32)cc1 (stereo not drawn) | 58.9 nM |
| CC(C)(C)c1ccc2c(c1)CN(Cc1ccc(Cl)cc1)CO2 | 589 nM |
| CC1=C(CC(=O)c2cccc([N+](=O)[O-])c2)C(=O)c2ccccc2C1=O | 1410 nM |
| Clc1cc(Br)ccc1-c1ccc(CNCC2CCNCC2)o1 | 74.1 nM |
| OC1CCCCC1C1(NC(=S)Nc2ccccc2)CCCCC1 (stereo not drawn) | 1740 nM |
| CCOC(=O)c1cnc2ccc(CC)cc2c1O | 110 nM |
| CCOC(=O)C1=C(C)N=c2sc(=Cc3cc(Cl)ccc3O)c(=O)n2C1c1ccc(OC)cc1 (stereo not drawn) | 3240 nM |
| O=C(NC1CCN(Cc2ccccc2)CC1)c1cc(C(=O)NC2CCN(Cc3ccccc3)CC2)cc(C(=O)NC2CCN(Cc3ccccc3)CC2)c1 | 1170 nM |
| COC(=O)c1ccc(C2C3=C(O)CC(c4ccc(F)cc4)CC3=Nc3ccccc3N2C(=O)c2ccccc2)cc1 (stereo not drawn) | 8510 nM |
| CCOC(=O)c1cn(CC)c2cc(N3CCCCC3)c(F)cc2c1=O | 95.5 nM |
| CN(C)CCCNc1c2ccccc2nc2ccccc12 | 1170 nM |
| Cc1ccc(-c2cc3c(nn2)-c2ccccc2C3=O)cc1 | 1260 nM |
| Cc1sc2ncnc(Sc3nc4ccccc4[nH]3)c2c1C | 1290 nM |
| COc1ccc(-c2c(C)nn3c(N)c(C#N)cnc23)cc1OC | 3630 nM |
